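Briefly, cells in 96-well plates were exposed to five compound concentrations for 48 h, and endpoints were estimated by linear interpolation. GI50 = concentration required for 50% inhibition of growth.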 Activity calls are given as the source filed them. No stated cut-off is given here; in the data, active = GI50 up to about 1.1 µM and inactive = higher. Square brackets hold non-standard residues; d marks the D form. Peptide text beside a SMILES is read from it. 2Nal = N[CH](Cc1ccc2ccccc2c1)C(=O)O

Test systems include A498; A549; BT-549; EKVX; HT-29; Hs-578T; K562; M14; MCF7; NCI-H522; OVCAR-5; SK-MEL-5; SW-620; T47D; HOP-92; MDA-N; NCI-H226; SN12C; U-251; SR.
Holding throughout (assay): NCI-60 cell line screen, 48 h

As to `O=C(/C=C/c1ccc(O)c(O)c1)NCCc1ccc(-c2ccccc2)cc1`, the GI50 in the test with A498 was > 100 µM (inactive); in the test with A549 it was > 100 µM (inactive); in the test on BT-549, 74.5 µM (inactive); in the test on EKVX, > 100 µM (inactive); in the test with HT-29 it was 63.5 µM (inactive); with Hs-578T, > 100 µM (inactive). Also, the GI50 was 27.2 µM (inactive) in the test on K562; 33.4 µM (inactive) in the test on M14; 32.3 µM (inactive) in the test with MCF7; > 100 µM (inactive) in the test on NCI-H522; 87.7 µM (inactive) in the test on OVCAR-5; 45.8 µM (inactive) in the test with SK-MEL-5. Besides, the GI50 in the test on SW-620 and with T47D was > 100 µM (inactive) each time.
In the case of `O=C1NC(=O)C(CC(C(=O)C(=O)Nc2ccccc2Cl)C(=O)c2ccc3ccccc3c2)C(=O)N1` (stereo not drawn), the GI50 with A549 was > 100 µM (inactive); in the test with BT-549, > 100 µM (inactive); in the test with EKVX, > 100 µM (inactive); with HOP-92, 61.9 µM (inactive); in the test on HT-29, > 100 µM (inactive); with Hs-578T, > 100 µM (inactive). Further, the GI50 in the test with M14, in the test on MCF7, with MDA-N, in the test with NCI-H226, in the test with NCI-H522 and with OVCAR-5 was > 100 µM (inactive) in each case. Also, the GI50 in the test with SK-MEL-5, in the test with SN12C, with SW-620 and in the test with U-251 was > 100 µM (inactive) throughout.
With `Nc1nc(Cl)cc(/N=N\c2ccccc2)n1`, the GI50 in the test with A498 is 61.5 µM (inactive); in the test with A549 it was 48.2 µM (inactive); with BT-549, 72.4 µM (inactive); in the test on EKVX, 37.2 µM (inactive); with HOP-92 it was 2.33 µM (inactive); in the test on HT-29, 31.3 µM (inactive). Moreover, the GI50 is 35.9 µM (inactive) in the test on Hs-578T; 2.14 µM (inactive) in the test with K562; 31.8 µM (inactive) in the test on M14; 48.1 µM (inactive) with MCF7; 45.2 µM (inactive) in the test with NCI-H226; 30.6 µM (inactive) in the test with NCI-H522. The GI50 is 72.1 µM (inactive) in the test on OVCAR-5; 15.8 µM (inactive) in the test with SK-MEL-5; 43 µM (inactive) with SN12C; 9.79 µM (inactive) in the test on SR; > 100 µM (inactive) with SW-620; 32.6 µM (inactive) in the test with T47D.
For the compound `COc1ccc2c(c1OC)OC[C@@H](C1=CC(=O)C=C(O)C1=O)C2`, the GI50 with A498 is 15.3 µM (inactive); with A549, 18.2 µM (inactive); with BT-549, 12.8 µM (inactive); in the test with EKVX it was 12.5 µM (inactive); with HOP-92, 1.89 µM (inactive); with HT-29, 17.7 µM (inactive). The GI50 is 20.6 µM (inactive) in the test on Hs-578T; 2.2 µM (inactive) in the test with K562; 12.4 µM (inactive) in the test with M14; 9.91 µM (inactive) in the test on MCF7; 19.6 µM (inactive) in the test on NCI-H226; 2.7 µM (inactive) with NCI-H522. For the same compound, the GI50 is 18 µM (inactive) in the test on OVCAR-5; 12.5 µM (inactive) in the test on SK-MEL-5; 16.2 µM (inactive) in the test with SN12C; 6.31 µM (inactive) with SR; 8.2 µM (inactive) with SW-620; 4.25 µM (inactive) in the test on T47D. Further, the GI50 with U-251 was 11.7 µM (inactive).
On to `COc1ccc(C2c3c(n(C)c(=O)n(C)c3=O)OC(N(C)C)(N(C)C)C2(F)F)cc1` (stereo not drawn), for which the GI50 in the test with A498 is > 100 µM (inactive); in the test with A549, > 100 µM (inactive); in the test on BT-549 it was > 100 µM (inactive); in the test with EKVX, > 100 µM (inactive); with HOP-92, > 100 µM (inactive); with K562, 3.2 µM (inactive). For the same compound, the GI50 in the test on M14, with MCF7, in the test on NCI-H226, in the test on OVCAR-5, with SK-MEL-5 and in the test on SW-620 was > 100 µM (inactive) throughout. The GI50 in the test with T47D and in the test with U-251 was > 100 µM (inactive) in each case.
For the compound `COc1ccc(-c2cc(-c3ccc(Nc4ccnc5cc(Cl)ccc45)cc3)nc(N)c2C#N)cc1`, the GI50 with A498, in the test with A549, in the test with BT-549, in the test on EKVX, in the test with HOP-92 and in the test on K562 was > 100 µM (inactive) in each case. The GI50 in the test on M14, with MCF7, with NCI-H226, in the test with NCI-H522, with OVCAR-5 and in the test on SR was > 100 µM (inactive) throughout. For the same compound, the GI50 in the test on SW-620, in the test with T47D and with U-251 was > 100 µM (inactive) each time.
For `N#CC1(C#N)NC(c2cccs2)C(C#N)(C#N)NC1c1cccs1` (stereo not drawn), the GI50 in the test on A498 was 20.5 µM (inactive); in the test with A549 it was 50.8 µM (inactive); in the test with BT-549, 21.2 µM (inactive); in the test on EKVX, 55.8 µM (inactive); in the test on HOP-92, 23 µM (inactive); in the test with HT-29, 47.3 µM (inactive). The GI50 was 43.2 µM (inactive) with Hs-578T; 22.4 µM (inactive) in the test with K562; 31.3 µM (inactive) in the test with M14; 12.2 µM (inactive) in the test on MCF7; 53.1 µM (inactive) with NCI-H226; 23.1 µM (inactive) in the test with NCI-H522. In addition, the GI50 with OVCAR-5 is 31.9 µM (inactive); in the test on SK-MEL-5, 26.7 µM (inactive); in the test with SN12C it was 43.2 µM (inactive); with SR it was 28.2 µM (inactive); with SW-620, 31.1 µM (inactive); in the test on T47D, 51.2 µM (inactive). In addition, the GI50 in the test on U-251 is 22.8 µM (inactive).
With `O=C(CCCN1CCC2(CC1)CC(c1ccccc1)OC2=O)c1ccc(F)cc1` (stereo not drawn), the GI50 was 24 µM (inactive) with A498; > 100 µM (inactive) in the test with A549; > 100 µM (inactive) in the test with EKVX; 26.9 µM (inactive) with HOP-92; 9.06 µM (inactive) in the test on HT-29; 40.8 µM (inactive) with Hs-578T. Moreover, the GI50 in the test on K562 was 29.5 µM (inactive); in the test on M14, 15.8 µM (inactive); in the test on MCF7, 35.2 µM (inactive); with MDA-N, 49.4 µM (inactive); in the test with NCI-H226, 53.7 µM (inactive); in the test with NCI-H522, > 100 µM (inactive). The GI50 in the test with OVCAR-5 was 45.9 µM (inactive); in the test with SK-MEL-5, 15 µM (inactive); with SN12C, 48.6 µM (inactive); in the test on SR, 19.6 µM (inactive); in the test with SW-620, 40.1 µM (inactive); in the test on T47D, 16.2 µM (inactive). Besides, in the test with U-251, the GI50 is 74.5 µM (inactive).
Turning to `C=C1C(=O)O[C@H]2[C@H]3O[C@@H](C[C@@H]12)[C@@]1(C)CC[C@H](O1)[C@H](C)CCC[C@H]3C`, the GI50 was 1.71 µM (inactive) in the test with A498; 2.16 µM (inactive) in the test on A549; 0.811 µM (active) with BT-549; 1.44 µM (inactive) in the test on EKVX; 1.43 µM (inactive) in the test on HOP-92; 1.29 µM (inactive) in the test with HT-29. Besides, the GI50 is 2.64 µM (inactive) with Hs-578T; 1.44 µM (inactive) in the test with K562; 1.77 µM (inactive) with MCF7; 1.53 µM (inactive) in the test with NCI-H226; 1.42 µM (inactive) with NCI-H522; 1.67 µM (inactive) with OVCAR-5. In addition, the GI50 in the test on SK-MEL-5 was 1.42 µM (inactive); in the test on SN12C, 2.22 µM (inactive); in the test with SR, 0.148 µM (active); in the test with SW-620, 1.46 µM (inactive); in the test on T47D, 2.21 µM (inactive); in the test with U-251 it was 1.5 µM (inactive).
As to `C[C@H]1C[C@H]2[C@@H]3CCC4=CC(=O)C=C[C@]4(C)C3=CC[C@]2(C)[C@@]1(O)C(=O)CO`, the GI50 in the test on A498 is 23.4 µM (inactive); with A549, > 100 µM (inactive); with EKVX it was 50.6 µM (inactive); in the test with HOP-92, > 100 µM (inactive); in the test on HT-29, > 100 µM (inactive); with Hs-578T it was > 100 µM (inactive). Also, the GI50 with K562 is > 100 µM (inactive); with M14, > 100 µM (inactive); in the test with MCF7 it was > 100 µM (inactive); with MDA-N it was > 100 µM (inactive); with NCI-H226 it was > 100 µM (inactive); with NCI-H522 it was 68.2 µM (inactive). The GI50 was > 100 µM (inactive) with OVCAR-5; 83.4 µM (inactive) in the test with SK-MEL-5; > 100 µM (inactive) with SN12C; 37.7 µM (inactive) with SR; 69.8 µM (inactive) in the test on T47D; > 100 µM (inactive) in the test on U-251.
On to `CC(C)C(NC(=O)C(CCCCN)NC(=O)C(Cc1c[nH]c2ccccc12)NC(=O)C(Cc1ccc(O)cc1)NC(=O)C(CS)NC(=O)C(N)Cc1ccc2ccccc2c1)C(=O)NC(CS)C(=O)NC(C(N)=O)C(C)O` (stereo not drawn) (H-[2Nal]CYWKVCT-NH2; configuration not given here), for which the GI50 in the test with A498 was > 12.5 µM (inactive); with A549, > 12.5 µM (inactive); in the test on EKVX, > 12.5 µM (inactive); in the test with HOP-92 it was < 0.01 µM (active); in the test with HT-29 it was > 12.5 µM (inactive); with Hs-578T, > 12.5 µM (inactive). Also, the GI50 with M14, with MCF7, in the test with MDA-N, in the test on NCI-H226, in the test on NCI-H522 and in the test on OVCAR-5 was > 12.5 µM (inactive) in each case. Also, the GI50 in the test on SK-MEL-5, in the test with SN12C, in the test with SR, in the test on SW-620, in the test on T47D and in the test on U-251 was > 12.5 µM (inactive) throughout.
